Holding throughout (test): NCI anticancer screen, dose series, 48 h
The test system of experiment [1] is COLO 205 colon.
The test system of experiment [2] is LOX IMVI melanoma.
Experiment [3] has as its system EKVX NSCLC.
Experiment [4] has as its system MDA-MB-435.
The subject of experiment [5] is SR leukemia.
Experiment [6] has as its system UO-31 renal.
The subject of experiment [7] is SNB-19 CNS.
Experiment [8] deals with KM12 colon.
Experiment [9] relates to SF-268 CNS.
For experiment [10], the system named is MDA-MB-231 breast.

Where “and” joins values, the source holds several entries; their conditions need not be identical. Equal values may be shown once.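 Grown in 96-well plates, cells were treated for 48 hours with each compound at five concentrations. Insufficient inhibition: endpoint recorded as highest concentration tested. At the GI50, growth is halved. TGI is the concentration that stops growth completely.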

In the case of `Cn1c(N)c(N=Nc2ccc(S(N)(=O)=O)cc2)c(=O)n(C)c1=O`, the TGI in experiment [1], in experiment [2], in [3], in experiment [4], in [5] and in [6] was over 100 µM each time. Besides, the TGI in experiment [7], in experiment [8], in experiment [9] and in experiment [10] was over 100 µM each time.
Turning to `C[CH2][Ge]1([CH2]C)[CH2]CC2(CCN(CCCN(C)C)C2)C[CH2]1`, the GI50 is 0.39 µM and 1.29 µM in [1]; 1.7 µM and 2.33 µM in experiment [3]; 0.289 µM in [4]; 0.231 µM in [5]; 1.22 µM and 1.91 µM in experiment [6]; 2.21 µM and 4.46 µM in [7]. Moreover, the GI50 is 1.83 µM and 10.2 µM in experiment [8]; 1.81 µM in [9]; 1.46 µM in [10]. The TGI in [1] is 1.12 µM and 1.77 µM; in experiment [3], 6.56 µM and 4.44 µM; in experiment [4], 0.843 µM; in experiment [5] it was 1.25 µM; in [6], 2.48 µM and 3.68 µM; in experiment [7], 5.57 µM and 9.89 µM. The TGI was 4.02 µM and 22.2 µM in experiment [8]; 3.96 µM in experiment [9]; 2.96 µM in [10].
On to `COc1ccc(/C=C2\CN(Cc3cn(CCCNc4ccnc5cc(Cl)ccc45)nn3)C/C(=C\c3ccc(OC)cc3)C2=O)cc1`, for which the GI50 in experiment [1] was 12.2 µM; in [2], 3.98 µM; in experiment [4], 1.6 µM; in experiment [5], 1.69 µM; in experiment [6] it was 3.85 µM; in [7], 15.7 µM. Besides, the GI50 in experiment [8] is 1.66 µM; in [9], 3.45 µM; in experiment [10], 5.39 µM. For the same compound, the TGI was found to be 26.8 µM in experiment [1]; 18.5 µM in experiment [2]; 3.02 µM in experiment [4]; 7.47 µM in experiment [5]; 21.4 µM in experiment [6]; 36.1 µM in [7]. Further, the figures for the TGI in [8], in experiment [9] and in [10] were 3.39 µM, 16.9 µM and 28.4 µM, respectively.
For the compound `COc1cccc2c1C(=N)c1c(O)c3c(c(O)c1C2=O)C[C@@](O)(C(C)=O)C[C@@H]3OC1CC(N)C(O)C(C)O1` (some centres not stated), the TGI in experiment [1] was 2.29 µM and 4.36 µM and 2.42 µM; in experiment [3], 3.82 µM and 7.64 µM and 2.29 µM; in [4], 4.47 µM; in experiment [8], 2.55 µM and 1.94 µM and 10.4 µM; in experiment [9] it was 3.07 µM and 4.61 µM and 5.69 µM; in [10] it was 2.18 µM. Further, the GI50 in [4] is 1.1 µM; in [5], 0.0196 µM; in experiment [10] it was 0.445 µM.
With `COc1ccc(C2CC(c3cccc(Nc4ccnc5cc(Cl)ccc45)c3)=NN2c2ccc(Cl)cc2)cc1` (configuration not stated), the GI50 in experiment [1] is 3.78 µM; in [2] it was 1.3 µM; in [4] it was 0.717 µM; in [5] it was 4.29 µM; in [6] it was 1.87 µM; in experiment [7] it was 15.9 µM. In addition, the GI50 is 0.713 µM in experiment [8], 15.5 µM in [9] and 4.84 µM in [10]. Besides, the TGI in [1] is 19.7 µM; in experiment [2], 13.6 µM; in experiment [4], 49.6 µM; in experiment [5], 32.5 µM; in experiment [6] it was 31.3 µM; in experiment [7], over 100 µM. In addition, the TGI is 23.9 µM in experiment [8], over 100 µM in experiment [9] and 65.2 µM in [10].
For the compound `COc1c(C)cnc(Cn2cnc3c(Cl)nc(N)nc32)c1C`, the GI50 was 0.218 µM in [1]; 0.29 µM in experiment [2]; 0.179 µM in [4]; 0.117 µM in experiment [5]; 0.141 µM in [6]; 0.48 µM in experiment [7]. Further, the GI50 is 0.0854 µM in experiment [8], 0.708 µM in experiment [9] and 0.559 µM in [10]. For the same compound, the TGI in experiment [2] is 4.05 µM; in [4], 40.1 µM; in experiment [5], over 100 µM; in experiment [6], over 47.4 µM; in experiment [7], over 100 µM; in experiment [9], over 100 µM. Also, in experiment [10], the TGI is over 72.9 µM.
Regarding `C[As](C)SCC(COC(=O)c1ccccc1)OC(=O)c1ccccc1` (configuration not stated), the GI50 in [1] was 0.0514 µM; in experiment [3] it was 1.86 µM; in [4] it was 0.0191 µM; in [5], 0.0241 µM; in [6], 0.763 µM; in [7], 3.63 µM. Moreover, the GI50 in experiment [8] was 0.384 µM; in [9], 0.344 µM; in experiment [10], 0.463 µM. Further, the TGI in experiment [1] was determined as 1.88 µM; in experiment [3], 10.7 µM; in [4], 0.0664 µM; in experiment [5] it was 0.183 µM; in experiment [6], 8.06 µM; in [7], 19.6 µM. Further, the TGI is 7.92 µM in experiment [8], 4.42 µM in experiment [9] and 2.97 µM in experiment [10].
Turning to `Cn1c([N+](=O)[O-])cnc1/C=C1\Oc2ccc(Cl)cc2C1=O`, the GI50 in experiment [1] was 0.8 µM; in experiment [2], 0.25 µM; in [4] it was 0.354 µM; in experiment [5], 0.0676 µM; in [6], 0.394 µM; in [7], 1.77 µM. Further, the results for the GI50 in [8], in experiment [9] and in experiment [10] were 0.36 µM, 0.339 µM and 0.783 µM, respectively. Further, the TGI in [1] stood at 3.15 µM; in [2], 0.825 µM; in experiment [4], 1.95 µM; in experiment [6], 2.97 µM; in [7], 6.95 µM; in experiment [8], 1.47 µM. In addition, the values for the TGI in experiment [9] and in experiment [10] were 1.45 µM and 4.64 µM, respectively.
As to `CCCCCCn1c(=N)n(CC(O)COc2cccc(C)c2)c2ccccc21` (configuration not stated), the GI50 in experiment [1] is 1.9 µM; in [2], 1.82 µM; in experiment [4] it was 1.83 µM; in [5], 1.76 µM; in experiment [6] it was 3.88 µM; in experiment [7] it was 4.94 µM. The GI50 in experiment [8] is 2.04 µM; in [9], 3.9 µM; in experiment [10] it was 2.2 µM. The TGI in experiment [1] was determined as 3.43 µM; in experiment [2], 3.44 µM; in experiment [4] it was 3.56 µM; in [5], 5.84 µM; in experiment [6], 15.4 µM; in experiment [7], 20 µM. The TGI in [8] amounted to 4.17 µM; in experiment [9] it was 13.9 µM; in experiment [10], 6.44 µM.

The values above are taken from PubChem BioAssay (NCI).
